The values that follow come from patent EP3088389A1, “4-EPI-ISOFAGOMINE DERIVATIVES” (Dorphan S.A., priority 2015, dated 2016).

For test [1], the target named is T1, Beta-galactosidase (Homo sapiens, UniProt P16278).
T1 construct: endogenous in cells; host or cells: human peripheral blood mononuclear cells (lysate)
T1 sequence (P16278 29-677): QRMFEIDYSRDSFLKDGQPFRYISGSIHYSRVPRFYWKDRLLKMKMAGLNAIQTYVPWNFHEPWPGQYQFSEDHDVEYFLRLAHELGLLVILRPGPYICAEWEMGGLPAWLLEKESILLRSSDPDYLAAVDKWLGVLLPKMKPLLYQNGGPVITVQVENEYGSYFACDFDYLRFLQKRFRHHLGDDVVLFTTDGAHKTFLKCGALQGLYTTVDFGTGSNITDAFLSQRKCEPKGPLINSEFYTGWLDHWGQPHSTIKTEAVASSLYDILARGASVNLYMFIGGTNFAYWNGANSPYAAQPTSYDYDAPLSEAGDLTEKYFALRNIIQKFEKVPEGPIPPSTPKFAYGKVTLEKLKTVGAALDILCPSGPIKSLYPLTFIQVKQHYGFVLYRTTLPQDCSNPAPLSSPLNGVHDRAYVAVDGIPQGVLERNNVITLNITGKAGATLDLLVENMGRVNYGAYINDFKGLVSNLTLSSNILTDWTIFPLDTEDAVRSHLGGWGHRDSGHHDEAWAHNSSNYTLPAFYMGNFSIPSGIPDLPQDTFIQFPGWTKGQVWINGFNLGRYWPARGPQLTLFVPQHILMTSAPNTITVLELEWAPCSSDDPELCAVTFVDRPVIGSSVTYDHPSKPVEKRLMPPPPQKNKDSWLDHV
Put plainly: Inhibition of wild type beta-galactosidase activity in human peripheral blood mononuclear cell lysate (Example 1). As to conditions: for IC50: human PBMC lysate, pH 7.3, 2 hours at 37°C. Format: biochemical. As for the experimental part: Samples of human peripheral blood mononuclear cell lysate (2 x 10^6 cells per assay) were incubated with graded concentrations of compound N-nonyl-4-epi-isofagomine or 4-epi-isofagomine in 50 mM sodium phosphate, pH 7.3, supplemented with 1% Triton X-100 and protease inhibitors, and 0.8 mM of 4-methylumbelliferyl β-D-galactopyranoside. After an incubation of 2 hours at 37°C, the enzymatic reactions were stopped by the addition of 0.15 M glycine, pH 10.2, and fluorescence was measured at 445 nm using an excitation wavelength of 365 nm. The stock solutions of compound were at 20 mM in DMSO.
The results obtained with N-nonyl-4-epi-isofagomine (squares), 4-epi-isofagomine (triangles) and DMSO vehicle (circles) are presented on figure 1.

Test [2] concerns the target T1, Beta-galactosidase. Put plainly: Inhibition of wild type beta-galactosidase activity in human peripheral blood mononuclear cell lysate (Example 3). It counts as biochemical. As for the experimental part:
Samples of human peripheral blood mononuclear cell lysate (2 x 10^6 cells per assay) were incubated with graded concentrations of compound in 25 mM sodium phosphate, pH 7.3, supplemented with 0.5% Triton X-100 and protease inhibitors, and 0.8 mM of 4-methylumbelliferyl β-D-galactopyranoside. After an incubation of 2 hours at 37°C, the enzymatic reactions were stopped by the addition of 0.15 M glycine, pH 10.2, and fluorescence was measured at 445 nm using an excitation wavelength of 365 nm.

Test [3] deals with T1, Beta-galactosidase. Put plainly: Glycosidase specificity panel, beta-galactosidase from PBMC lysate (Example 4). Format: biochemical. An excerpt: (§1) IC50 values indicated in table 1 are the concentrations of (2R,3R,4S,5R)-3-hydroxymethyl-2-pentylpiperidine-4,5-diol compound required to inhibit by half the different enzymatic activities.
The target of a further test is T2, Alpha-galactosidase (Homo sapiens, UniProt P06280).
T2 sequence (P06280 32-429): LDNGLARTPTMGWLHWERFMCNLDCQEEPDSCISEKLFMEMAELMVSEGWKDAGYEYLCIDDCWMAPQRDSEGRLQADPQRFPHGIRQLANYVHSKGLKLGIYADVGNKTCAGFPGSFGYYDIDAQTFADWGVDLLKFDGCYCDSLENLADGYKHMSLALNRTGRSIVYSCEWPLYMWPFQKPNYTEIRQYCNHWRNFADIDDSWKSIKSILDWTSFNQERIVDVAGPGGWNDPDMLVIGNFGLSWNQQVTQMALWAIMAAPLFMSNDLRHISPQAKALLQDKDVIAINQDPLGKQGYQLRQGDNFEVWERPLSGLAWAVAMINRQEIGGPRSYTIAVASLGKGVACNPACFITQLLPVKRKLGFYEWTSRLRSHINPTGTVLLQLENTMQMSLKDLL
Put plainly: Glycosidase specificity panel (Example 4). It counts as biochemical.
Source text: as §1

A further test concerns the target T3, Beta-glucuronidase (Homo sapiens, UniProt P08236).
T3 sequence (P08236 23-651): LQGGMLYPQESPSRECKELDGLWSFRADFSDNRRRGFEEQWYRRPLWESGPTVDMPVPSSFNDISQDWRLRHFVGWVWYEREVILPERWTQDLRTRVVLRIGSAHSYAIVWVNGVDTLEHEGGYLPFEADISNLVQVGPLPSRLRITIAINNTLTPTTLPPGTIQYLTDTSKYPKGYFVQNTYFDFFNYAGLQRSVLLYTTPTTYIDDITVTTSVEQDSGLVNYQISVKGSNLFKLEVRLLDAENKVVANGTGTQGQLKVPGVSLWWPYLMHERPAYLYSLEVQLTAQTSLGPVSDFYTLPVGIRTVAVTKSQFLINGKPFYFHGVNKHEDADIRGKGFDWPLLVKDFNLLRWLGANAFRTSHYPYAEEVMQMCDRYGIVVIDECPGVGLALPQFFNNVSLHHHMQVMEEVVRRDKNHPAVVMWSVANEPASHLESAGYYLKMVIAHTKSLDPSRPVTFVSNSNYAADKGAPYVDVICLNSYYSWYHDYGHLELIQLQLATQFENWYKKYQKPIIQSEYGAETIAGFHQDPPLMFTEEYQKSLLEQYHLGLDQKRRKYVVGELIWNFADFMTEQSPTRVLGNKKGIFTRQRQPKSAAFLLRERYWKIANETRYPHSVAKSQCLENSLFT
Put plainly: Glycosidase specificity panel (Example 4). Format: biochemical.
Source text: as §1

Another test concerns the target Alpha-glucosidase. Put plainly: Glycosidase specificity panel (Example 4). Format: biochemical, Human.
Source text: as §1

A further test deals with Alpha-hexosaminidase. Put plainly: Glycosidase specificity panel (Example 4). It counts as biochemical, Human.
Source text: as §1

Another test has as its target Beta-glucosidase. Put plainly: Glycosidase specificity panel (Example 4). Format: biochemical, Human.
Source text: as §1

For test [4], the target named is Beta-hexosaminidase. Put plainly: Glycosidase specificity panel (Example 4). It counts as biochemical, Human.
Source text: as §1

The target in test [5] is T1, Beta-galactosidase. Put plainly: Prevention of heat denaturation of beta-galactosidase in PBMC lysate at 48°C (Example 5). It counts as biochemical. The source says: The capacity of a compound of protecting an enzyme from denaturation predicts to some extent its pharmacological chaperone activity, i.e. its capacity of restoring enzymatic activity in patient cells exposed to the compound. The Applicant has evaluated whether (2R,3R,4S,5R)-3-hydroxymethyl-2-pentylpiperidine-4,5-diol can prevent heat denaturation of human beta-galactosidase following a procedure described by Suzuki et al 2014.
Samples of human peripheral blood mononuclear cell lysate (2 x 10^6 cells) in phosphate buffer, pH 7.3, 0.5% Triton X-100 and protease inhibitors were incubated at 48°C for 0, 5, 10, 20, and 40 minutes in the presence of graded concentrations of (2R,3R,4S,5R)-3-hydroxymethyl-2-pentylpiperidine-4,5-diol. The samples were then diluted in citrate buffer, pH 4.3, and 0.25 mM of 4-methylumbelliferyl β-D-galactopyranoside. After an incubation of 17 hours at 37°C, the reaction was stopped by the addition of glycine 0.15 M, pH 10.2. Fluorescence was determined at 445 nm using an excitation wavelength at 365 nm. The tested concentrations of (2R,3R,4S,5R)-3-hydroxymethyl-2-pentylpiperidine-4,5-diol, are 20 µM (square), 2 µM (triangle), 0.2 µM (diamond), 0.02 µM (circle) and 0 µM (line).

Test [6] has as its system mutated beta-galactosidase. Put plainly: Increase of mutated beta-galactosidase activity in fibroblasts of GM1-gangliosidosis patients (Example 6). It counts as cell-based, human. The conditions noted are these: 4 days. As for the experimental part: GM02439 and GM05335 fibroblasts (Coriell Institute) were cultured for 4 days in the presence or the absence of 2 µM of (2R,3R,4S,5R)-3-hydroxymethyl-2-pentylpiperidine-4,5-diol. Cells were lysed in 100 mM sodium citrate, pH 4.8, supplemented with 1% Triton X-100 and protease inhibitors. B eta-galactosidase and beta-hexosaminidase activities were then determined in the cell lysates using fluorescence and colorimetric assays, respectively. Results presented are means of 4 values obtained from independent cultures. […] Hatched and empty bars: beta-galactosidase and beta-hexosaminidase activities, respectively.

For test [7], the system named is Beta-hexosaminidase. Put plainly: Beta-hexosaminidase activity in fibroblasts of GM1-gangliosidosis patients (Example 6). As to conditions: GM02439 and GM05335 fibroblasts, 2 µM, 4 days. Format: cell-based, human. As for the experimental part:
GM02439 and GM05335 fibroblasts (Coriell Institute) were cultured for 4 days in the presence or the absence of 2 µM of (2R,3R,4S,5R)-3-hydroxymethyl-2-pentylpiperidine-4,5-diol. Cells were lysed in 100 mM sodium citrate, pH 4.8, supplemented with 1% Triton X-100 and protease inhibitors. B eta-galactosidase and beta-hexosaminidase activities were then determined in the cell lysates using fluorescence and colorimetric assays, respectively. Results presented are means of 4 values obtained from independent cultures. Percent of deviation of each value is <30% from the mean. Hatched and empty bars: beta-galactosidase and beta-hexosaminidase activities, respectively.

Setting [8] is: human PBMC lysate, pH 7.3, 2 hours at 37°C, Example 3, read-out: IC50.

For `OC[C@H]1CNC[C@@H](O)[C@H]1O` [4-epi-isofagomine], the results for the IC50 at Beta-galactosidase [1] and on Beta-galactosidase [2] were 0.07 µM and 0.8 µM, respectively.

Consider `CCCCCC1NCC(O)[C@@H](O)[C@H]1CO` (stereo in doubt) [(2R,3R,4S,5S)-3-hydroxymethyl-2-pentylpiperidine-4,5-diol], for which the “fold less potent than (2R,3R,4S,5R) isomer” value on Beta-galactosidase [2] (Example 3) was found to be 150 fold. Moreover, on Beta-galactosidase [2] (setting [8]), the concentration for half-maximal inhibition (IC50) was 1.5 µM.

As to `CCCCC[C@H]1NC[C@@H](O)[C@@H](O)[C@H]1CO` [(2R,3R,4S,5R)-3-Hydroxymethyl-2-pentylpiperidine-4,5-diol], the IC50 was 0.01 µM on Beta-galactosidase [2] (setting [8]); 0.02 µM against Beta-galactosidase [3]; 150 µM at Alpha-galactosidase; over 160 µM at Beta-glucuronidase; over 160 µM on Alpha-glucosidase; over 160 µM on Alpha-hexosaminidase. For the same compound, the results for the IC50 on Beta-glucosidase and on Beta-hexosaminidase [4] were 60 µM and over 160 µM, respectively. The activity at 0.02 µM stood at 100% at Beta-galactosidase [5] (0 minute); 70% at Beta-galactosidase [5] (5 minutes); 46% on Beta-galactosidase [5] (10 minutes); 23% at Beta-galactosidase [5] (20 minutes); 11% at Beta-galactosidase [5] (40 minutes). Also, the activity at 0.2 µM on Beta-galactosidase [5] (0 minute) was 100%; on Beta-galactosidase [5] (5 minutes), 81%; at Beta-galactosidase [5] (10 minutes), 72%; at Beta-galactosidase [5] (20 minutes) it was 56%; at Beta-galactosidase [5] (40 minutes) it was 33%. The “time to loss of 50% of the beta-galactosidase activity” value on Beta-galactosidase [5] (2 µM) and on Beta-galactosidase [5] (20 µM) was over 40 min in each case. In addition, the activity at 2 µM on Beta-galactosidase [5] (2 µM, 0 minute) worked out at 100%; at Beta-galactosidase [5] (2 µM, 5 minutes), 82%; at Beta-galactosidase [5] (2 µM, 10 minutes), 84%; on Beta-galactosidase [5] (2 µM, 20 minutes), 73%; at Beta-galactosidase [5] (2 µM, 40 minutes), 70%. Moreover, the activity at 20 µM at Beta-galactosidase [5] (20 µM, 0 minute) worked out at 100%; on Beta-galactosidase [5] (20 µM, 5 minutes), 93%; at Beta-galactosidase [5] (20 µM, 10 minutes) it was 95%; at Beta-galactosidase [5] (20 µM, 20 minutes) it was 85%; at Beta-galactosidase [5] (20 µM, 40 minutes) it was 87%. Besides, the “increase of mutated beta-galactosidase activity relative to untreated cells” value in test [6] (infantile GM1-gangliosidosis cell line GM05335, 2 µM) came out at 19 fold; in test [6] (juvenile GM1-gangliosidosis cell line GM02439, 2 µM) it was 6.5 fold. In addition, in the test on Beta-hexosaminidase [7], the “increase of the beta-hexosaminidase activity” value is “no increase”.

Regarding `CCCCCCCCCN1CC(O)C(O)C(CO)C1` (stereo not drawn) [N-nonyl-4-epi-isofagomine], on Beta-galactosidase [1], the “fold less inhibitory on human beta-galactosidase than 4-epi-isofagomine” value was determined as 140 fold and half-maximal inhibition (IC50) required 10 µM.
